“And” between values parts separate entries of the source, which are not always exact repeats. Identical values can stand only once.
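Note: spheroids exposed to agents for seven days before reading; 100% = DMSO vehicle wells so lower means fewer viable cells.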

The first test deals with KRAS-mutant PDC tumor spheroid with HUVEC/MSC, viability. In words: Anticancer human tumor 327498-153-R-J2-PDC patient-derived uterine carcinosarcoma cell line growth inhibition [KRAS2]. Conditions: compound 0.0001 µM; stronger effect = lower value. An excerpt: Multicellular complex tumor spheroid response to RAS pathway inhibitors in combination with a targeted agents in patient-derived cell lines with oncogenic KRAS variants from multiple cancer types
A high-throughput screen of multi-cell type tumor spheroids was designed to identify active combinations of targeted small molecules and KRAS pathway inhibitors. Complex spheroids include a stromal component modeled by human endothelial cells (HUVEC) and fibroblasts modeled by human mesenchymal stem cells (MSCs). The concentration ranges selected for each drug and investigational agent were based upon clinically achievable concentrations if the clinical Cmax of the agent was known.
Compounds. The drugs and investigational agents: BI-3406 (NSC825286), BAY-293 (NSC824723), batoprotafib (TNO155; NSC825523), sotorasib (AMG 510; NSC818433), MRTX1257 (NSC819558), elimusertib (BAY 1895344; NSC800525), molibresib (GSK525762; NSC774829), temuterkib (LY3214996; NSC803410), venetoclax (NSC766270), alisertib (NSC759677), olaparib (NSC753686), talazoparib (NSC767125), erdafitinib (NSC781556), ipatasertib (NSC767898), cabozantinib (NSC761068), nintedanib (NSC756659), abemaciclib (NSC768073), docetaxel (NSC628503), trametinib (NSC758246), and sapanisertib (NSC764658) were obtained from the National Cancer Institute (NCI) Developmental Therapeutics Program Chemical Repository. The FDA-approved anticancer drug set is available from the Developmental Therapeutics Program. […] The stock solutions were prepared in dimethyl sulfoxide (DMSO, Sigma-Aldrich, St. Louis, MO, cat. D2650) at 800-fold the tested concentration and stored at -70 degrees C prior to their use. All drugs and investigational agents were tested over a range starting from a high concentration at or near the clinical Cmax and decreasing in half-log increments. If the clinical Cmax for an agent had not been determined, the highest concentration tested was 10 microM.
Cell Culture. All cells were maintained in an incubator at 37 degrees C and 5% CO2 with 95% humidity. The PDC lines were cultured according to standard operating procedures established by the NCI PDMR (https://pdmr.cancer.gov/sops/default.htm). Briefly, all PDCs were thawed and cultured in Matrigel-coated flasks prepared with a working solution of 1X Ham's F-12 nutrient mix, without supplementation (Invitrogen, Waltham, MA, cat. 11765054), 100 U/mL penicillin-streptomycin (Invitrogen, cat. 15140122), and 2.5% Matrigel (Corning Inc., Corning, NY, cat. 354248) for the first three passages. All PDCs were cultured in complete DMEM/F-12 media containing advanced DMEM/F-12 (Invitrogen, cat. 12634028), 4.9% defined fetal bovine serum, heat inactivated (HyClone Laboratories Inc., Logan, UT, cat. SH30070.03HI), 389 ng/mL hydrocortisone (Sigma-Aldrich, cat. H4001), 9.7 ng/mL human EGF recombinant protein (Invitrogen, cat. PHG0313), 23.4 microg/mL adenine (Sigma-Aldrich, cat. A2786), 97.3 U/mL penicillin-streptomycin (Invitrogen, cat. 15140122), 1.9 mM L-glutamine (Invitrogen, cat. 25030081), and 9.7 microM Y-27632 dihydrochloride (Tocris Bioscience, Bristol, United Kingdom, cat. 1254). The PDCs were cultured in complete DMEM/F12 media without 9.7 microM Y-27632 dihydrochloride for at least two passages prior to the screen. The established cell line HOP-62 was cultured in RPMI 1640 medium, HEPES (Invitrogen, cat. 22400105) with 10% defined fetal bovine serum (HyClone Laboratories Inc., cat. SH30070.03) and 2 mM L-glutamine (Invitrogen, cat. 25030081). The pooled donor HUVEC were cultured in endothelial cell growth medium 2 (PromoCell, Heidelberg, Germany, cat. C-22011) and the hMSC were cultured in mesenchymal stem cell growth medium 2 (PromoCell, cat. C-28009). For all experiments, HUVEC and hMSC were used at passages </=5, while the malignant cell lines were used at passages </=15. […]
On to `CC(=O)Nc1cccc(-n2c(=O)n(C3CC3)c(=O)c3c(Nc4ccc(I)cc4F)n(C)c(=O)c(C)c32)c1`, for which the viability, T/C is 97.2% [middle of 5 runs].

Still in this test, the particulars now being: compound 0.000316 µM; stronger effect = lower value.
For `CC(=O)Nc1cccc(-n2c(=O)n(C3CC3)c(=O)c3c(Nc4ccc(I)cc4F)n(C)c(=O)c(C)c32)c1`, the viability, T/C is 92.1% [middle of 5 runs].

Take `CC(C)n1nc(-c2ccc3oc(N)nc3c2)c2c(N)ncnc21`: the viability, T/C was 99.8% [middle of 5 runs].

Take `CN(C)C/C=C/C(=O)Nc1cc2c(Nc3ccc(F)c(Cl)c3)ncnc2cc1O[C@H]1CCOC1`: the viability, T/C is 99.1% [middle of 5 runs].

Take `Cn1ncnc1[C@H]1c2n[nH]c(=O)c3cc(F)cc(c23)N[C@@H]1c1ccc(F)cc1`: the viability, T/C was 103% [middle of 5 runs].

Staying with this test, now noted: compound 0.001 µM; stronger effect = lower value.
Regarding `CC(=O)Nc1cccc(-n2c(=O)n(C3CC3)c(=O)c3c(Nc4ccc(I)cc4F)n(C)c(=O)c(C)c32)c1`, the viability, T/C is 75.5% [middle of 5 runs].

For the compound `CC(C)n1nc(-c2ccc3oc(N)nc3c2)c2c(N)ncnc21`, the viability, T/C is 92.1% [middle of 5 runs].

As to `CN(C)C/C=C/C(=O)Nc1cc2c(Nc3ccc(F)c(Cl)c3)ncnc2cc1O[C@H]1CCOC1`, the viability, T/C was 97% [middle of 5 runs].

For the compound `Cn1ncnc1[C@H]1c2n[nH]c(=O)c3cc(F)cc(c23)N[C@@H]1c1ccc(F)cc1`, the viability, T/C was 99% [middle of 5 runs].

The test is the same for the next values; noted with them: compound 0.00316 µM; stronger effect = lower value.
In the case of `CC(=O)Nc1cccc(-n2c(=O)n(C3CC3)c(=O)c3c(Nc4ccc(I)cc4F)n(C)c(=O)c(C)c32)c1`, the viability, T/C is 63.5% [middle of 5 runs].

On to `CC(C)n1nc(-c2ccc3oc(N)nc3c2)c2c(N)ncnc21`, for which the viability, T/C was 77.7% [middle of 5 runs].

Turning to `CCN1CCN(Cc2ccc(Nc3ncc(F)c(-c4cc(F)c5nc(C)n(C(C)C)c5c4)n3)nc2)CC1`, the viability, T/C was 88.7% [middle of 5 runs].

As for `CN(C)C/C=C/C(=O)Nc1cc2c(Nc3ccc(F)c(Cl)c3)ncnc2cc1O[C@H]1CCOC1`, the viability, T/C is 95.1% [middle of 5 runs].

Turning to `Cn1ncnc1[C@H]1c2n[nH]c(=O)c3cc(F)cc(c23)N[C@@H]1c1ccc(F)cc1`, the viability, T/C is 94.2% [middle of 5 runs].

The same test, now with this note: compound 0.01 µM; stronger effect = lower value.
With `CC(=O)Nc1cccc(-n2c(=O)n(C3CC3)c(=O)c3c(Nc4ccc(I)cc4F)n(C)c(=O)c(C)c32)c1`, the viability, T/C is 56.3% [middle of 5 runs].

For `CC(=O)OC12COC1CC(O)C1(C)C(=O)C(O)C3=C(C)C(OC(=O)C(O)C(NC(=O)OC(C)(C)C)c4ccccc4)CC(O)(C(OC(=O)c4ccccc4)C21)C3(C)C` (configuration not stated), the viability, T/C was 8.03% [middle of 5 runs].

As to `CC(C)n1nc(-c2ccc3oc(N)nc3c2)c2c(N)ncnc21`, the viability, T/C is 49.9% [middle of 5 runs].

For `CCN1CCN(Cc2ccc(Nc3ncc(F)c(-c4cc(F)c5nc(C)n(C(C)C)c5c4)n3)nc2)CC1`, the viability, T/C is 81.7% [middle of 5 runs].

For `CN(C)C/C=C/C(=O)Nc1cc2c(Nc3ccc(F)c(Cl)c3)ncnc2cc1O[C@H]1CCOC1`, the viability, T/C is 104% [middle of 5 runs].

In the case of `Cn1ncnc1[C@H]1c2n[nH]c(=O)c3cc(F)cc(c23)N[C@@H]1c1ccc(F)cc1`, the viability, T/C was 81.5% [middle of 5 runs].

Staying with this test, now noted: compound 0.0316 µM; stronger effect = lower value.
In the case of `CC(=O)Nc1cccc(-n2c(=O)n(C3CC3)c(=O)c3c(Nc4ccc(I)cc4F)n(C)c(=O)c(C)c32)c1`, the viability, T/C is 36.9% [middle of 5 runs].

As to `CC(=O)OC12COC1CC(O)C1(C)C(=O)C(O)C3=C(C)C(OC(=O)C(O)C(NC(=O)OC(C)(C)C)c4ccccc4)CC(O)(C(OC(=O)c4ccccc4)C21)C3(C)C` (configuration not stated), the viability, T/C was 6.44% [middle of 5 runs].

For the compound `CC(C)NCC(C(=O)N1CCN(c2ncnc3c2C(C)CC3O)CC1)c1ccc(Cl)cc1` (configuration not stated), the viability, T/C was 97.8% [middle of 5 runs].

As for `CC(C)n1nc(-c2ccc3oc(N)nc3c2)c2c(N)ncnc21`, the viability, T/C was 16% [middle of 5 runs].

In the case of `CC1(C)CCC(CN2CCN(c3ccc(C(=O)NS(=O)(=O)c4ccc(NCC5CCOCC5)c([N+](=O)[O-])c4)c(Oc4cnc5[nH]ccc5c4)c3)CC2)=C(c2ccc(Cl)cc2)C1`, the viability, T/C was 101% [middle of 5 runs].

With `CC1OCC2(CCN(c3cnc(Sc4ccnc(N)c4Cl)c(N)n3)CC2)C1N` (configuration not stated), the viability, T/C is 87.3% and 88.9% and 86.3%.

On to `CCN1CCN(Cc2ccc(Nc3ncc(F)c(-c4cc(F)c5nc(C)n(C(C)C)c5c4)n3)nc2)CC1`, for which the viability, T/C was 65.9% [middle of 5 runs].

For `CCNC(=O)CC1N=C(c2ccc(Cl)cc2)c2cc(OC)ccc2-n2c(C)nnc21` (configuration not stated), the viability, T/C is 102% [middle of 5 runs].

In the case of `CN(C)C/C=C/C(=O)Nc1cc2c(Nc3ccc(F)c(Cl)c3)ncnc2cc1O[C@H]1CCOC1`, the viability, T/C is 100% [middle of 5 runs].

On to `COc1cc(Nc2ncc3c(n2)-c2ccc(Cl)cc2C(c2c(F)cccc2OC)=NC3)ccc1C(=O)O`, for which the viability, T/C was 19.4% [middle of 5 runs].

`COc1cc(OC)cc(N(CCNC(C)C)c2ccc3ncc(-c4cnn(C)c4)nc3c2)c1`: the viability, T/C was 73.7% [middle of 5 runs].

In the case of `COc1cc2nccc(Oc3ccc(NC(=O)C4(C(=O)Nc5ccc(F)cc5)CC4)cc3)c2cc1OC`, the viability, T/C is 95.8% [middle of 5 runs].

Take `Cn1nccc1Nc1nccc(-c2cc3c(s2)C(C)(C)N(CCN2CCOCC2)C3=O)n1`: the viability, T/C is 101% [middle of 5 runs].

`Cn1ncnc1[C@H]1c2n[nH]c(=O)c3cc(F)cc(c23)N[C@@H]1c1ccc(F)cc1`: the viability, T/C was 42.4% [middle of 5 runs].

In the case of `O=C(c1cc(Cc2n[nH]c(=O)c3ccccc23)ccc1F)N1CCN(C(=O)C2CC2)CC1`, the viability, T/C was 108% [middle of 5 runs].

Staying with this test, now noted: compound 0.1 µM; stronger effect = lower value.
`CC(=O)OC12COC1CC(O)C1(C)C(=O)C(O)C3=C(C)C(OC(=O)C(O)C(NC(=O)OC(C)(C)C)c4ccccc4)CC(O)(C(OC(=O)c4ccccc4)C21)C3(C)C` (configuration not stated): the viability, T/C was 6.83% [middle of 5 runs].

For the compound `CC(C)NCC(C(=O)N1CCN(c2ncnc3c2C(C)CC3O)CC1)c1ccc(Cl)cc1` (configuration not stated), the viability, T/C is 77.2% [middle of 5 runs].

`CC(C)n1nc(-c2ccc3oc(N)nc3c2)c2c(N)ncnc21`: the viability, T/C was 9.59% [middle of 5 runs].

As to `CC1(C)CCC(CN2CCN(c3ccc(C(=O)NS(=O)(=O)c4ccc(NCC5CCOCC5)c([N+](=O)[O-])c4)c(Oc4cnc5[nH]ccc5c4)c3)CC2)=C(c2ccc(Cl)cc2)C1`, the viability, T/C is 98.9% [middle of 5 runs].

`CC1OCC2(CCN(c3cnc(Sc4ccnc(N)c4Cl)c(N)n3)CC2)C1N` (configuration not stated): the viability, T/C is 75.4% [middle of 19 runs].

Consider `CCN1CCN(Cc2ccc(Nc3ncc(F)c(-c4cc(F)c5nc(C)n(C(C)C)c5c4)n3)nc2)CC1`, for which the viability, T/C was 61% [middle of 5 runs].

Consider `CCNC(=O)CC1N=C(c2ccc(Cl)cc2)c2cc(OC)ccc2-n2c(C)nnc21` (configuration not stated), for which the viability, T/C is 95.9% [middle of 5 runs].

For `CN(C)C/C=C/C(=O)Nc1cc2c(Nc3ccc(F)c(Cl)c3)ncnc2cc1O[C@H]1CCOC1`, the viability, T/C is 90.8% [middle of 5 runs].

For the compound `COc1cc(Nc2ncc3c(n2)-c2ccc(Cl)cc2C(c2c(F)cccc2OC)=NC3)ccc1C(=O)O`, the viability, T/C is 13.1% [middle of 5 runs].

Turning to `COc1cc(OC)cc(N(CCNC(C)C)c2ccc3ncc(-c4cnn(C)c4)nc3c2)c1`, the viability, T/C is 71.3% [middle of 5 runs].

As to `COc1cc2nccc(Oc3ccc(NC(=O)C4(C(=O)Nc5ccc(F)cc5)CC4)cc3)c2cc1OC`, the viability, T/C is 94.9% [middle of 5 runs].

Regarding `Cn1nccc1Nc1nccc(-c2cc3c(s2)C(C)(C)N(CCN2CCOCC2)C3=O)n1`, the viability, T/C was 96.8% [middle of 5 runs].

In general, viability, T/C refers to the result in the treated group divided by that in the control group, in per cent.

The values above are taken from PubChem BioAssay AID1963867 (Molecular Pharmacology Branch, DTP, NCI, 2024).
